Test results as given in patent EP0003269A1, “Pentacyclic derivatives, process for their preparation and pharmaceutical compositions containing them” (SCIENCE UNION ET Cie SOCIETE FRANCAISE DE RECHERCHE MEDICALE, priority 1977, dated 1979).

Assay: solubility in solvents
Type: physicochemical

Row | solubilité (dichlorhydrate, in organic solvents) | solubilité (in a mixture pyridine-eau) | solubilité (in méthanol) | solubilité (in n- butanol) | solubilité (in the other solvents) | Compound
1 | très soluble |  |  |  |  | hydrazide de l'acide 10-methoxy raubasinique
2 |  | soluble | très soluble | très soluble | peu soluble | C[C@@H]1OC=C(C(=O)NN)[C@H]2C[C@H]3c4[nH]c5ccccc5c4CCN3C[C@H]12 [hydrazide de l'acide Raubasinique, Hydrazide de l'acide Raubasinique]
